Read-outs that look alike come from different tables or passages of the source.
Legend:
Test in all cases: microbe, parasite or virus in culture
[1] = tested on: ABC clinical isolates with SUL-DUR MIC > 4 µg/mL; format: cell-based, Acinetobacter baumannii-calcoaceticus complex; settings: Acinetobacter
Procedure, shortened: (§1)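 Broth microdilution MICs following CLSI methods, interpreted with CLSI breakpoints where available. Sulbactam tested as twofold dilutions combined with fixed 4 µg/mL durlobactam.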

[2] = tested on: A. baumannii clinical isolates; format: cell-based; settings: Acinetobacter baumannii
Procedure, shortened: as §1

[3] = tested on: A. nosocomialis clinical isolate; format: cell-based; settings: Acinetobacter nosocomialis, isolate ARC7023 (IHMA 2118812), France, BSI, 2019, read-out: MIC
Procedure, shortened: as §1

[4] = tested on: A. pittii clinical isolates; format: cell-based; settings: Acinetobacter pittii
Procedure, shortened: as §1

CN(C)c1cc(NC(=O)CNC(C)(C)C)c(O)c2c1C[C@H]1C[C@H]3[C@H](N(C)C)C(O)=C(C(N)=O)C(=O)[C@@]3(O)C(O)=C1C2=O [TIG, tigecycline]
MIC50 [1]: 1 µg/mL
MIC90 [1]: 2 µg/mL
MIC ([1]; read-out: MIC Max): 16 µg/mL
MIC ([1]; read-out: MIC Min): 0.13 µg/mL
MIC ([2]; isolate ARC6644 (IHMA 1420327), Mexico, UTI, 2016, read-out: MIC): 1 µg/mL
MIC ([2]; isolate ARC6645 (IHMA 1435703), France, UTI, 2016, read-out: MIC): 0.25 µg/mL
MIC ([2]; isolate ARC6646 (IHMA 1484127), United States, RTI, 2016, read-out: MIC): 1 µg/mL
MIC ([2]; isolate ARC6647 (IHMA 1386786), Argentina, RTI, 2016, read-out: MIC): 0.12 µg/mL
MIC ([2]; isolate ARC6648 (IHMA 1407634), Spain, RTI, 2016, read-out: MIC): 1 µg/mL
MIC ([2]; isolate ARC6650 (IHMA 1457337), Argentina, RTI, 2016, read-out: MIC): 1 µg/mL
MIC ([2]; isolate ARC6652 (IHMA 1465642), Belgium, RTI, 2016, read-out: MIC): 0.25 µg/mL
MIC ([2]; isolate ARC6653 (IHMA 1308777), Vietnam, RTI, 2016, read-out: MIC): 1 µg/mL
MIC ([2]; isolate ARC6799 (IHMA 1562935), Spain, UTI, 2017, read-out: MIC): 1 µg/mL
MIC ([2]; isolate ARC6800 (IHMA 1557526), Turkey, RTI, 2017, read-out: MIC): 1 µg/mL
MIC ([2]; isolate ARC6801 (IHMA 1662094), Thailand, RTI, 2017, read-out: MIC): 1 µg/mL
MIC ([2]; isolate ARC6802 (IHMA 1557073), Spain, UTI, 2017, read-out: MIC): 1 µg/mL
MIC ([2]; isolate ARC6803 (IHMA 1589408), Belgium, UTI, 2017, read-out: MIC): 1 µg/mL
MIC ([2]; isolate ARC6805 (IHMA 1558650), United States, RTI, 2017, read-out: MIC): 1 µg/mL
MIC ([2]; isolate ARC6808 (IHMA 1557168), Spain, RTI, 2017, read-out: MIC): 1 µg/mL
MIC ([2]; isolate ARC6809 (IHMA 1699528), Guatemala, RTI, 2017, read-out: MIC): 0.5 µg/mL
MIC ([2]; isolate ARC6810 (IHMA 1699548), Guatemala, RTI, 2017, read-out: MIC): 1 µg/mL
MIC ([2]; isolate ARC6812 (IHMA 1699530), Guatemala, RTI, 2017, read-out: MIC): 0.5 µg/mL
MIC ([2]; isolate ARC6813 (IHMA 1699543), Guatemala, UTI, 2017, read-out: MIC): 0.25 µg/mL
MIC ([2]; isolate ARC6814 (IHMA 1699512), Guatemala, RTI, 2017, read-out: MIC): 1 µg/mL
MIC ([2]; isolate ARC6815 (IHMA 1699513), Guatemala, RTI, 2017, read-out: MIC): 0.5 µg/mL
MIC ([2]; isolate ARC6816 (IHMA 1699521), Guatemala, RTI, 2017, read-out: MIC): 2 µg/mL
MIC ([2]; isolate ARC6817 (IHMA 1699523), Guatemala, RTI, 2017, read-out: MIC): 0.5 µg/mL
MIC ([2]; isolate ARC6818 (IHMA 1683261), Thailand, RTI, 2017, read-out: MIC): 0.25 µg/mL
MIC ([2]; isolate ARC6819 (IHMA 1683267), Thailand, RTI, 2017, read-out: MIC): 2 µg/mL
MIC ([2]; isolate ARC6820 (IHMA 1647876), Argentina, RTI, 2017, read-out: MIC): 0.5 µg/mL
MIC ([2]; isolate ARC6821 (IHMA 1699517), Guatemala, RTI, 2017, read-out: MIC): 0.25 µg/mL
MIC ([2]; isolate ARC6822 (IHMA 1637626), Guatemala, RTI, 2017, read-out: MIC): 0.25 µg/mL
MIC ([2]; isolate ARC6823 (IHMA 1620872), Greece, SSSI, 2017, read-out: MIC): 1 µg/mL
MIC ([2]; isolate ARC6824 (IHMA 1625487), Argentina, BSI, 2017, read-out: MIC): 0.5 µg/mL
MIC ([2]; isolate ARC6937 (IHMA 1562926), Spain, UTI, 2017, read-out: MIC): 1 µg/mL
MIC ([2]; isolate ARC6950 (IHMA 1820064), Israel, RTI, 2018, read-out: MIC): 0.5 µg/mL
MIC ([2]; isolate ARC6953 (IHMA 1909827), Turkey, IAI, 2018, read-out: MIC): 0.5 µg/mL
MIC ([2]; isolate ARC6954 (IHMA 1838192), Guatemala, SSSI, 2018, read-out: MIC): 0.5 µg/mL
MIC ([2]; isolate ARC6955 (IHMA 1825425), United States, RTI, 2018, read-out: MIC): 0.5 µg/mL
MIC ([2]; isolate ARC7008 (IHMA 2009813), Thailand, BSI, 2019, read-out: MIC): 1 µg/mL
MIC ([2]; isolate ARC7009 (IHMA 2043611), United States, UTI, 2019, read-out: MIC): 1 µg/mL
MIC ([2]; isolate ARC7010 (IHMA 2043398), United States, RTI, 2019, read-out: MIC): 1 µg/mL
MIC ([2]; isolate ARC7011 (IHMA 2104553), Germany, RTI, 2019, read-out: MIC): 2 µg/mL
MIC ([2]; isolate ARC7012 (IHMA 2010001), Thailand, RTI, 2019, read-out: MIC): 1 µg/mL
MIC ([2]; isolate ARC7013 (IHMA 1962831), Argentina, RTI, 2019, read-out: MIC): 0.12 µg/mL
MIC ([2]; isolate ARC7014 (IHMA 2045328), Guatemala, IAI, 2019, read-out: MIC): 1 µg/mL
MIC ([2]; isolate ARC7015 (IHMA 2045327), Guatemala, UTI, 2019, read-out: MIC): 0.5 µg/mL
MIC ([2]; isolate ARC7016 (IHMA 2148441), Brazil, BSI, 2019, read-out: MIC): 0.5 µg/mL
MIC ([2]; isolate ARC7017 (IHMA 2148446), Brazil, BSI, 2019, read-out: MIC): 0.5 µg/mL
MIC ([2]; isolate ARC7018 (IHMA 2045454), Guatemala, IAI, 2019, read-out: MIC): 1 µg/mL
MIC ([2]; isolate ARC7019 (IHMA 2114463), Thailand, RTI, 2019, read-out: MIC): 16 µg/mL
MIC ([2]; isolate ARC7020 (IHMA 2045326), Guatemala, RTI, 2019, read-out: MIC): 1 µg/mL
MIC ([2]; isolate ARC7021 (IHMA 1966347), Guatemala, RTI, 2019, read-out: MIC): 0.5 µg/mL
MIC ([2]; isolate ARC7022 (IHMA 2045319), Guatemala, IAI, 2019, read-out: MIC): 2 µg/mL
MIC ([2]; isolate ARC7024 (IHMA 2059448), Turkey, RTI, 2019, read-out: MIC): 2 µg/mL
MIC ([2]; isolate ARC7025 (IHMA 2002121), Spain, RTI, 2019, read-out: MIC): 1 µg/mL
MIC ([2]; isolate ARC7026 (IHMA 2104494), Guatemala, BSI, 2019, read-out: MIC): 1 µg/mL
MIC ([2]; isolate ARC7082 (IHMA 2160640), Belgium, BSI, 2020, read-out: MIC): 1 µg/mL
MIC ([2]; isolate ARC7083 (IHMA 2163687), United States, RTI, 2020, read-out: MIC): 2 µg/mL
MIC ([2]; isolate ARC7084 (IHMA 2189596), Germany, RTI, 2020, read-out: MIC): 2 µg/mL
MIC ([2]; isolate ARC7085 (IHMA 2205747), Guatemala, IAI, 2020, read-out: MIC): 0.5 µg/mL
MIC ([2]; isolate ARC7086 (IHMA 2207563), Israel, RTI, 2020, read-out: MIC): 2 µg/mL
MIC ([2]; isolate ARC7088 (IHMA 2215554), Turkey, BSI, 2020, read-out: MIC): 2 µg/mL
MIC ([2]; isolate ARC7089 (IHMA 2240345), Argentina, BSI, 2020, read-out: MIC): 1 µg/mL
MIC ([2]; isolate ARC7090 (IHMA 2244410), Poland, RTI, 2020, read-out: MIC): 2 µg/mL
MIC ([2]; isolate ARC7091 (IHMA 2244564), Australia, RTI, 2020, read-out: MIC): 0.5 µg/mL
MIC ([2]; isolate ARC7092 (IHMA 2258772), United States, BSI, 2020, read-out: MIC): 1 µg/mL
MIC ([2]; isolate ARC7093 (IHMA 2258783), United States, RTI, 2020, read-out: MIC): 2 µg/mL
MIC ([2]; isolate ARC7094 (IHMA 2296423), Turkey, RTI, 2020, read-out: MIC): 1 µg/mL
MIC ([2]; isolate ARC7095 (IHMA 2320843), Turkey, BSI, 2020, read-out: MIC): 0.5 µg/mL
MIC ([2]; isolate ARC7156 (IHMA 2455450), Greece, RTI, 2021, read-out: MIC): 2 µg/mL
MIC ([2]; isolate ARC7158 (IHMA 2523738), Italy, BSI, 2021, read-out: MIC): 1 µg/mL
MIC ([2]; isolate ARC7159 (IHMA 2456229), Malaysia, RTI, 2021, read-out: MIC): 1 µg/mL
MIC ([2]; isolate ARC7160 (IHMA 2458626), Thailand, RTI, 2021, read-out: MIC): 2 µg/mL
MIC ([2]; isolate ARC7161 (IHMA 2429252), Ukraine, RTI, 2021, read-out: MIC): 2 µg/mL
MIC ([2]; isolate ARC7162 (IHMA 2411847), United States, BSI, 2021, read-out: MIC): 1 µg/mL
MIC ([2]; isolate ARC7163 (IHMA 2477704), United States, BSI, 2021, read-out: MIC): 1 µg/mL
MIC [3]: 0.25 µg/mL
MIC ([4]; isolate ARC6949 (IHMA 1898982), Romania, RTI, 2018, read-out: MIC): 0.5 µg/mL
MIC ([4]; isolate ARC6951 (IHMA 1776233), Philippines, RTI, 2018, read-out: MIC): 0.25 µg/mL
MIC ([4]; isolate ARC6952 (IHMA 1899008), Romania, RTI, 2018, read-out: MIC): 1 µg/mL
MIC ([4]; isolate ARC7087 (IHMA 2212062), Colombia, BSI, 2020, read-out: MIC): 0.25 µg/mL

Reference: PMC10648852, “Molecular drivers of resistance to sulbactam-durlobactam in contemporary clinical isolates of Acinetobacter baumannii” (Antimicrobial Agents and Chemotherapy, 2023)
